Experimental findings from BindingDB's records for doi:10.1016/j.bmcl.2019.126886 (Tokyo University of Agriculture, 2020) are described below.

The assay can be described thus: Inhibition of PKCbeta in rat RBL2H3 cells assessed as inhibition of mouse anti-DNP IgE-stimulated beta-hexosaminidase release preincubated for 15 mins followed by mouse anti-DNP IgE stimulation and measured after 3 hrs by 4-nitropheny1-2-acetamide-2-deoxy-beta-glucopyranoside substrate based colorimetric method.

Each structure is given as a SMILES string.

The term IC50 denotes the midpoint of a concentration-inhibition curve. Take `O=C1O/C(=C(/C(=O)O)c2ccc(O)c(O)c2)C(O)=C1c1ccc(O)c(O)c1`: the IC50 is 10.4 µM.
